Data on three compounds can be found in ChEMBL document CHEMBL5537141, “Targeting PIM kinases in cancer therapy: An update on pharmacological small-molecule inhibitors” (Eur J Med Chem, 2024).

A short description of the series: Metabolic stability in human liver microsomes assessed as half life measured upto 60 mins by LC/MS-MS analysis. It counts as ADME, Microsome. For orientation: Microsomes from liver hold many membrane-bound enzymes, among them those of drug oxidation.
`C[C@@H]1C[C@H](N)C[C@H](c2ccncc2NC(=O)c2ccc(F)c(-c3ccccc3F)n2)C1`: the half-life (commonly the time needed for the level to fall by half in the phase considered) is over 180 min.

As for `C[C@@H]1C[C@H](N)CN(c2ccncc2NC(=O)c2ccc(F)c(-c3ccccc3F)n2)C1`, the half-life came to 13 min.

As for `C[C@@H]1C[C@H](N)CN(c2ccncc2NC(=O)c2ccc(F)c(-c3c(F)cccc3F)n2)C1`, the half-life worked out at 40 min.
